Test results reported in patent publication US20180087086A1, “CELL EGRESS AND INVASION INHIBITORS AND THEIR USE AS ANTIPARASITICAL AGENTS” (THE JOHNS HOPKINS UNIVERSITY, priority 2015, published 2018).

Legend:
[1] = biological target: TRAP interaction with aldolase (Plasmodium falciparum, UniProt Q7KQL9); assay: TRAP-aldolase interaction via SPR; assay type: binding, P. falciparum; conditions: as a function of compound concentration
Method: (§1) FIG. 5A (Top) TRAP and FIG. 5B (Bottom) MTRAP show the interaction with aldolase in the presence of compounds 4 and 18 as a function of compound concentration as measured via SPR.
(§2) The dissociation constant for PfAldolase and PfTRAP, MTRAP and PvTRAP was measured by determining the binding response at various concentrations of aldolase passed over a chip with bound, biotinylated peptides (FIG. 3). Dissociation constants were in the mid-nanomolar range and matched with values previously reported in the literature (Boucher LE and Bosch J, J. Mol Recognit. 2013 Oct. 26(10): 496-500).
(§3) (FIG. 5A) TRAP and (FIG. 5B) MTRAP interaction with aldolase in the presence of compounds 4 and 18 is illustrated as a function of compound concentration as measured via SPR.

rabbit aldolase = biological target: T1, rabbit aldolase (Oryctolagus cuniculus, UniProt P00883); assay: aldolase enzyme activity assay, rabbit aldolase; assay type: biochemical; conditions: surrogate for human aldolase
T1 sequence (P00883 1-364): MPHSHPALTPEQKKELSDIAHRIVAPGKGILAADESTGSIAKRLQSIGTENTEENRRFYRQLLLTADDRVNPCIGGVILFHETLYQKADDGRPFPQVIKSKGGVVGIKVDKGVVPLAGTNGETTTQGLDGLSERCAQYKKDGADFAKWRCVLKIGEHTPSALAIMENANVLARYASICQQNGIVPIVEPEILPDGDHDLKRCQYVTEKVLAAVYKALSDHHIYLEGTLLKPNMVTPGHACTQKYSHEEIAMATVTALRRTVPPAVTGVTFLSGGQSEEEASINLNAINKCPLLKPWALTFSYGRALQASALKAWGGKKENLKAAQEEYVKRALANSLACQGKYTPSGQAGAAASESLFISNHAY
Source text: (§4) FIGS. 16A-16D depict an aldolase enzyme activity assay. (A) Cartoon and surface representation of aldolase with TRAPpep bound (magenta, sticks) (PDB entry 2pc4), overlapping the F16BP (green, sticks) substrate binding site (PDB entry 4ald), via PyMOL. (B) Coupled enzyme assay to measure aldolase activity via NADH consumption as measured at 340 nm. (C) Concentration-dependent effect of compounds on PfAldolase inhibition in the presence of PbTRAP peptide. Activity is normalized to the PbTRAP control, which reduces Vmax to 50% of enzyme without PbTRAP. (D) PfAldolase activity in the presence of compounds to determine direct inhibition of enzyme by the compounds. Activity is normalized to the PfAldolase control measured Vmax. Standard error means plotted for activity assays and standard deviation for SPR data.
(§5) Dose-Dependent Enzymatic Inhibition of Compounds on P. falciparum Aldolase and Rabbit Aldolase as a Surrogate for Human Aldolase.

P. berghei sporozoites = assay: in vitro sporozoite gliding assay (CSP trails on anti-CSP coated slides); assay type: cell-based; conditions: for effect on gliding motility (comparison among the five compounds): 250-31.25 μM; for share of gliding sporozoites that were low gliding (less than 10 trails) / sporozoites gliding: lowest concentration of compound (31.25 μM)
Method: Compounds selected from the initial hit list were tested using in vitro gliding assays. Five compounds were selected for dose dependent testing on gliding motility based on early crystallographic experiments and first round gliding assay experiments at high concentration.
P. berghei sporozoites were purified from mosquitoes, incubated with compound, and allowed to glide on anti-CSP coated slides. The CSP-trails deposited by the gliding parasites were detected with anti-CSP antibodies. Trails were quantified for each sporozoite. The ability of each sporozoite to glide was categorized as no gliding (0 trails), and low (<10 trails), medium (10-20 trails), and high gliding (>20 trails).
In the DMSO control, more than 90% of sporozoites deposited trails, with >60% classified as medium and high gliding (>10 trails). […] At lower concentrations of compounds, the sporozoites did start to recover their gliding ability. However, for compound 4 at the lowest concentration of compound, less than 60% of the sporozoites were gliding and when they did glide, 90% of those sporozoites were depositing less than 10 trails and upon inspection of multiple fields, they typically could only complete one circular trail. For compound 18, less than 25% of sporozoites were able to glide at the lowest compound concentration and 75% of those sporozoites were low gliding, with less than 10 trails deposited; however, these low gliding parasites typically deposited more than 1 trail, unlike those from compound 4. […] However, from this single assay, it is not possible to assess whether the compounds were directly affecting the motor through the proposed TRAP-Aldolase interaction, by affecting an energy production step necessary to generate ATP for motor power, or by cytocidal effect.

sporozoites [2] = assay: sporozoite viability, propidium iodide exclusion assay; assay type: cell-based; conditions: 10 min at 18° C. then 15 min at 37° C., DMSO 85%, read-out: sporozoite viability (PI exclusion)
Method: FIG. 12A-FIG. 12C is a series of bar charts that show results of sporozoite viability assays. […] The total number of sporozoites was determined from phase images and the number of non-viable sporozoites from the count of red fluorescing sporozoites.
To determine if the compounds' mode of action was by causing cell death, viability assays to look at compound effects were performed. In a first test of viability, a propidium iodide exclusion assay was used (FIG. 12A). The total number of sporozoites was determined from in phase imaging and the number of non-viable sporozoites from the count of red fluorescing sporozoites. […] 250 μM of compound 4 reduced viability to 79% while compound 18 indicated a protective effect with 93% viability.

sporozoites [3] = assay: sporozoite viability, LIVE/DEAD fixable violet assay; assay type: cell-based
Source text: However, the viability decrease is not high enough to account for the levels of non-gliding sporozoites observed in the gliding assays.

[4] = biological target: MTRAP interaction with aldolase (Plasmodium falciparum, UniProt Q7KQL9); assay: MTRAP-aldolase interaction via SPR; assay type: binding, P. falciparum; conditions: as a function of compound concentration
Sequence of MTRAP interaction with aldolase (Q7KQL9 whole entry): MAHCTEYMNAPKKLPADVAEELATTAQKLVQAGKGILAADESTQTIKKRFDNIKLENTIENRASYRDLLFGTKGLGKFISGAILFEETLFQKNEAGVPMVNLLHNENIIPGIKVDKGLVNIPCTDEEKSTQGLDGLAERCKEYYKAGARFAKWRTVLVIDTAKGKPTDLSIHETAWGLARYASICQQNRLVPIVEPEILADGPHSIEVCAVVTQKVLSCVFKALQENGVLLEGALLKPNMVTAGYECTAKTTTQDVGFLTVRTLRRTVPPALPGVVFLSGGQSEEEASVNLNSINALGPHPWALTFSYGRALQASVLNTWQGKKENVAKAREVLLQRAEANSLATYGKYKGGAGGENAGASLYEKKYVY
Method: as §1, §2, §3

[5] = biological target: P. falciparum aldolase in the presence of TRAP (Plasmodium falciparum, UniProt Q7KQL9); assay: aldolase enzyme activity assay, P. falciparum aldolase in the presence of TRAP; assay type: biochemical; conditions: in the presence of TRAP and the compounds
Sequence of P. falciparum aldolase in the presence of TRAP (Q7KQL9 whole entry): as above
Source text: as §4, §5

Plasmodium parasite = assay: cytocidal activity (assay not specified); assay type: cell-based; conditions: 60 μM concentration
Source text: As described herein, inferring from sequence identity between TRAP and CTRP, the Aldolase-CTRP complex is inhibited during the mosquito stage.

Sequence of TRAP interaction with aldolase (Q7KQL9 whole entry): as above
Sequence of TRAP interaction with aldolase (P16893 516-559, further chain): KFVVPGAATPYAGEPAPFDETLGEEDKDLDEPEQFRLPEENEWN

SMILES | binding interaction of TRAP with aldolase in presence of compound [1] | enzyme inhibition on rabbit aldolase (rabbit aldolase) | effect on gliding motility (comparison among the five compounds) (P. berghei sporozoites) | share of gliding sporozoites that were low gliding (less than 10 trails) (P. berghei sporozoites) [%] | sporozoites gliding (P. berghei sporozoites) | viability at 250 µM (sporozoites [2]) [%] | effect on viability in LIVE/DEAD assay (sporozoites [3]) | binding interaction of MTRAP with aldolase in presence of compound [4] | inhibition of P. falciparum aldolase [5] | cytocidal activity (Plasmodium parasite)
Brc1ccc(Nc2nc3ccccc3nc2Nc2ccc(Br)cc2)cc1 [Compound 4, N,N′-bis(4-bromophenyl)-2,3-quinoxalinediamine] | Increased binding interaction | no enzyme inhibition | greatest effect | 90 | less than 60% | 79 | greater decrease in viability | Increased binding interaction | inhibited | cytocidal activity
CCCCn1c(N)c(C(=O)NCc2ccccc2)c2nc3ccccc3nc21 [Compound 18, 2-amino-N-benzyl-1-butyl-1H-pyrrolo[2,3-b]quinoxaline-3-carboxamide] | Increased binding interaction | – | greatest effect | 75 | less than 25% | 93 | relatively mild | Increased binding interaction | – | –
